Test results taken from PubChem BioAssay (NCI).
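Tested at 5 concentrations; 48 h exposure; 96-well plates; endpoints linearly interpolated, else capped at highest concentration. Abbreviation: GI50, concentration required for 50% inhibition of growth. TGI: concentration producing complete growth inhibition.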

Legend:
Experiment in all cases: NCI-60 cell line screen, 48 h
786-0 renal = tested on: 786-0 renal
A498 renal = tested on: A498 renal
A549 NSCLC = tested on: A549 NSCLC
ACHN renal = tested on: ACHN renal
BT-549 breast = tested on: BT-549 breast
CAKI-1 renal = tested on: CAKI-1 renal
CCRF-CEM leukemia = tested on: CCRF-CEM leukemia
COLO 205 colon = tested on: COLO 205 colon
DU-145 prostate = tested on: DU-145 prostate
EKVX NSCLC = tested on: EKVX NSCLC
HCC-2998 colon = tested on: HCC-2998 colon
HCT-116 colon = tested on: HCT-116 colon
HCT-15 colon = tested on: HCT-15 colon
HL-60(TB) leukemia = tested on: HL-60(TB) leukemia
HOP-62 NSCLC = tested on: HOP-62 NSCLC
HOP-92 NSCLC = tested on: HOP-92 NSCLC
HS 578T breast = tested on: HS 578T breast
HT29 colon = tested on: HT29 colon
IGROV1 ovarian = tested on: IGROV1 ovarian
K-562 leukemia = tested on: K-562 leukemia
KM12 colon = tested on: KM12 colon
LOX IMVI melanoma = tested on: LOX IMVI melanoma
M14 melanoma = tested on: M14 melanoma
MALME-3M melanoma = tested on: MALME-3M melanoma
MCF7 breast = tested on: MCF7 breast
MDA-MB-231 breast = tested on: MDA-MB-231 breast
MDA-MB-435 = tested on: MDA-MB-435
MOLT-4 leukemia = tested on: MOLT-4 leukemia
NCI-H226 lung = tested on: NCI-H226 lung
NCI-H23 lung = tested on: NCI-H23 lung
NCI-H460 lung = tested on: NCI-H460 lung
NCI-H522 lung = tested on: NCI-H522 lung
NCI/ADR-RES ovarian = tested on: NCI/ADR-RES ovarian
OVCAR-3 ovarian = tested on: OVCAR-3 ovarian
OVCAR-4 ovarian = tested on: OVCAR-4 ovarian
OVCAR-5 ovarian = tested on: OVCAR-5 ovarian
OVCAR-8 ovarian = tested on: OVCAR-8 ovarian
PC-3 prostate = tested on: PC-3 prostate
RPMI-8226 leukemia = tested on: RPMI-8226 leukemia
RXF 393 renal = tested on: RXF 393 renal
SF-268 CNS = tested on: SF-268 CNS
SF-295 CNS = tested on: SF-295 CNS
SF-539 CNS = tested on: SF-539 CNS
SK-MEL-2 melanoma = tested on: SK-MEL-2 melanoma
SK-MEL-28 melanoma = tested on: SK-MEL-28 melanoma
SK-MEL-5 melanoma = tested on: SK-MEL-5 melanoma
SK-OV-3 ovarian = tested on: SK-OV-3 ovarian
SN12C renal = tested on: SN12C renal
SNB-19 CNS = tested on: SNB-19 CNS
SNB-75 CNS = tested on: SNB-75 CNS
SR leukemia = tested on: SR leukemia
SW-620 colon = tested on: SW-620 colon
T-47D breast = tested on: T-47D breast
TK-10 renal = tested on: TK-10 renal
U251 CNS = tested on: U251 CNS
UACC-257 melanoma = tested on: UACC-257 melanoma
UACC-62 melanoma = tested on: UACC-62 melanoma
UO-31 renal = tested on: UO-31 renal

`CN1C(=O)C(C)(C)Oc2c(-c3cn(C)c(=O)c4[nH]ccc34)cc(S(C)(=O)=O)cc21` was tested, and the GI50 (786-0 renal) was 2.06 µM, the TGI (786-0 renal) was > 100 µM and the GI50 (A498 renal) was 1.11 µM. The TGI (A498 renal) was 5.98 µM, the GI50 (A549 NSCLC) was 0.989 µM and the TGI (A549 NSCLC) was > 100 µM. For the same compound, the GI50 (ACHN renal) was 1.39 µM, the TGI (ACHN renal) was > 100 µM and the GI50 (BT-549 breast) was 1.09 µM. It also gave a TGI (BT-549 breast) of 14.7 µM, a GI50 (CAKI-1 renal) of 0.271 µM and a TGI (CAKI-1 renal) of 16.1 µM. For the same compound, the GI50 (CCRF-CEM leukemia) was 1.45 µM, the TGI (CCRF-CEM leukemia) was > 100 µM and the GI50 (COLO 205 colon) was 0.469 µM. For the same compound, the TGI (COLO 205 colon) was 10.5 µM, the GI50 (DU-145 prostate) was 3.85 µM and the TGI (DU-145 prostate) was > 100 µM. For the same compound, the GI50 (EKVX NSCLC) was 0.972 µM, the TGI (EKVX NSCLC) was > 100 µM and the GI50 (HCC-2998 colon) was 1.24 µM. It also gave a TGI (HCC-2998 colon) of 2.86 µM, a GI50 (HCT-116 colon) of 1.13 µM and a TGI (HCT-116 colon) of 12.2 µM. For the same compound, the GI50 (HCT-15 colon) was 2.58 µM, the TGI (HCT-15 colon) was 39.2 µM and the GI50 (HL-60(TB) leukemia) was 0.281 µM. The TGI (HL-60(TB) leukemia) was 0.847 µM, the GI50 (HOP-62 NSCLC) was 0.732 µM and the TGI (HOP-62 NSCLC) was > 100 µM. The GI50 (HOP-92 NSCLC) was 0.408 µM, the TGI (HOP-92 NSCLC) was > 100 µM and the GI50 (HS 578T breast) was 0.425 µM. The TGI (HS 578T breast) was 6.71 µM, the GI50 (HT29 colon) was 0.339 µM and the TGI (HT29 colon) was > 100 µM. The GI50 (IGROV1 ovarian) was 0.89 µM, the TGI (IGROV1 ovarian) was > 100 µM and the GI50 (K-562 leukemia) was 0.765 µM. For the same compound, the TGI (K-562 leukemia) was > 100 µM, the GI50 (KM12 colon) was 1.44 µM and the TGI (KM12 colon) was 16.1 µM. It also gave a GI50 (LOX IMVI melanoma) of 0.462 µM, a TGI (LOX IMVI melanoma) of 1.73 µM and a GI50 (M14 melanoma) of 0.727 µM. The TGI (M14 melanoma) was > 100 µM, the GI50 (MALME-3M melanoma) was 1.1 µM and the TGI (MALME-3M melanoma) was 25.8 µM. The GI50 (MCF7 breast) was 0.338 µM, the TGI (MCF7 breast) was > 100 µM and the GI50 (MDA-MB-231 breast) was 0.664 µM. For the same compound, the TGI (MDA-MB-231 breast) was > 100 µM, the GI50 (MDA-MB-435) was 0.637 µM and the TGI (MDA-MB-435) was > 100 µM. For the same compound, the GI50 (MOLT-4 leukemia) was 1.42 µM, the TGI (MOLT-4 leukemia) was > 100 µM and the GI50 (NCI-H226 lung) was 2.26 µM. For the same compound, the TGI (NCI-H226 lung) was > 100 µM, the GI50 (NCI-H23 lung) was 1.71 µM and the TGI (NCI-H23 lung) was 18.7 µM. For the same compound, the GI50 (NCI-H460 lung) was 2.29 µM, the TGI (NCI-H460 lung) was > 100 µM and the GI50 (NCI-H522 lung) was 0.383 µM. The TGI (NCI-H522 lung) was 5 µM, the GI50 (NCI/ADR-RES ovarian) was 14.3 µM and the TGI (NCI/ADR-RES ovarian) was > 100 µM. The GI50 (OVCAR-3 ovarian) was 0.999 µM, the TGI (OVCAR-3 ovarian) was 5.17 µM and the GI50 (OVCAR-4 ovarian) was 0.741 µM. The TGI (OVCAR-4 ovarian) was 33.6 µM, the GI50 (OVCAR-5 ovarian) was 1.06 µM and the TGI (OVCAR-5 ovarian) was > 100 µM. For the same compound, the GI50 (OVCAR-8 ovarian) was 1.81 µM, the TGI (OVCAR-8 ovarian) was > 100 µM and the GI50 (PC-3 prostate) was 2.01 µM. The TGI (PC-3 prostate) was > 100 µM, the GI50 (RPMI-8226 leukemia) was 0.243 µM and the TGI (RPMI-8226 leukemia) was 4.94 µM. The GI50 (RXF 393 renal) was 1.59 µM, the TGI (RXF 393 renal) was 7.12 µM and the GI50 (SF-268 CNS) was 3.99 µM. The TGI (SF-268 CNS) was > 100 µM, the GI50 (SF-295 CNS) was 2.68 µM and the TGI (SF-295 CNS) was > 100 µM. For the same compound, the GI50 (SF-539 CNS) was 0.58 µM, the TGI (SF-539 CNS) was 40.3 µM and the GI50 (SK-MEL-2 melanoma) was 1.95 µM. The TGI (SK-MEL-2 melanoma) was > 100 µM, the GI50 (SK-MEL-28 melanoma) was 3.92 µM and the TGI (SK-MEL-28 melanoma) was > 100 µM. It also gave a GI50 (SK-MEL-5 melanoma) of 1.34 µM, a TGI (SK-MEL-5 melanoma) of 3.27 µM and a GI50 (SK-OV-3 ovarian) of 0.705 µM. The TGI (SK-OV-3 ovarian) was 7.04 µM, the GI50 (SN12C renal) was 2.68 µM and the TGI (SN12C renal) was > 100 µM. The GI50 (SNB-19 CNS) was 1.6 µM, the TGI (SNB-19 CNS) was > 100 µM and the GI50 (SNB-75 CNS) was 0.155 µM. The TGI (SNB-75 CNS) was 1.49 µM, the GI50 (SR leukemia) was 0.469 µM and the TGI (SR leukemia) was > 100 µM. It also gave a GI50 (SW-620 colon) of 2.15 µM, a TGI (SW-620 colon) of 19.2 µM and a GI50 (T-47D breast) of 0.808 µM. The TGI (T-47D breast) was > 100 µM, the GI50 (TK-10 renal) was 0.495 µM and the TGI (TK-10 renal) was 14.6 µM. For the same compound, the GI50 (U251 CNS) was 1.52 µM, the TGI (U251 CNS) was > 100 µM and the GI50 (UACC-257 melanoma) was 0.865 µM. The TGI (UACC-257 melanoma) was > 100 µM, the GI50 (UACC-62 melanoma) was 0.39 µM and the TGI (UACC-62 melanoma) was 11.8 µM. The GI50 (UO-31 renal) was 0.431 µM and the TGI (UO-31 renal) was > 100 µM.
